Laboratory results from US20060223888A1, “Valproic acid analogues and pharmaceutical composition thereof” (priority 2002, published 2006).

Tests used:
PTZ-induced seizures = test: ED50 against PTZ-induced seizures, i.p.; assay type: in vivo; conditions: Rattus norvegicus, ip, male Sprague-Dawley rats (n = 8)
Excerpt: These compounds were investigated for anticonvulsant activity in mice^13 and rats (see results in Table 4) and found to be equivalent in potency to VPA.

[1] = Pharmacokinetics and tissue distribution (plasma, liver, brain) after i.p. administration; assay type: in vivo, male Sprague-Dawley rats; conditions: rat, FIG. 1, Table 5

Row | Compound | Affinity for / accumulation in the liver (in words) [1] | melting point | ED50 (PTZ-induced seizures)
1 | CCC=C(CCC)C(=O)O [(E)-2-ene VPA, 2-propylpent-2-enoic acid] | markedly reduced affinities for liver |  | 185 mg/kg
2 | O=C(O)/C=C/C=C1CCCC1 [Compound 41a, (2E)-4-Cyclopentylidenebut-2-enoic Acid] |  | 112 to 114 °C | 
3 | O=C(O)/C=C/C=C1CCCCC1 [Compound 41b, (2E)-4-Cyclohexylidenebut-2-enoic Acid] |  | 132 to 134 °C | 
4 | O=C(O)/C=C/C=C1CCCCCC1 [Compound 41c, (2E)-4-Cycloheptylidenebut-2-enoic Acid] |  | 88 to 89 °C | 
5 | O=C(O)/C=C/C=C1CCCCCCC1 [Compound 41d, (2E)-4-Cyclooctylidenebut-2-enoic Acid] |  | 114 to 116 °C | 

Continued, in another order:

Row | Affinity for / accumulation in the liver (in words) [1] | melting point | Compound | ED50 (PTZ-induced seizures)
6 |  | 105 to 107 °C | O=C(O)/C=C\C=C1CCCC1 [Compound 42a, (2Z)-4-Cyclopentylidenebut-2-enoic Acid] | 
7 |  | 121 to 123 °C | O=C(O)/C=C\C=C1CCCCC1 [Compound 42b, (2Z)-4-Cyclohexylidenebut-2-enoic Acid] | 
8 |  | 86 to 88 °C | O=C(O)/C=C\C=C1CCCCCC1 [Compound 42c, (2Z)-4-Cycloheptylidenebut-2-enoic Acid] | 
9 |  | 110 to 112 °C | O=C(O)/C=C\C=C1CCCCCCC1 [Compound 42d, (2Z)-4-Cyclooctylidenebut-2-enoic Acid] | 
